{"source": "patent US20250345482A1", "about": "“3D PRINTED GALLIUM SCAFFOLD” (Northeast Ohio Medical University, priority 2024, published 2025)", "origin": "cited, not measured here", "key": {"[1]": {"system": "osteoclast differentiation and function", "details": "inventors' earlier publication (Ghanta P. et al. 2023)"}, "NFAT2, TRAP, and c-Fos": {"system": "NFAT2, TRAP, and c-Fos", "details": "literature (Verron E et al. 2012)"}}, "data": [{"smiles": "CC(=O)/C=C(/C)[O][Ga]([O]/C(C)=C\\C(C)=O)[O]/C(C)=C\\C(C)=O", "note": "[GaAcAc, gallium acetylacetonate]", "values": [{"measurement": "Osteoclast differentiation and function", "setting": "[1]", "value": "effectively inhibited"}]}, {"smiles": "O=[N+]([O-])[O-].O=[N+]([O-])[O-].O=[N+]([O-])[O-].[Ga+3]", "note": "[gallium nitrate]", "values": [{"measurement": "Effect on transcription factors responsible for osteoclast differentiation", "setting": "NFAT2, TRAP, and c-Fos", "value": "dose-dependent downregulation"}]}]}
